# Tested on: CD19+ B-cell counts
# Test: Phase 1 absolute CD19+ B-cell counts
# Source text: Dose regimen: The dose range chosen for this study is informed by several assessments.
compound,measurement,value
"C=CC(=O)N1CCC[C@@H](n2c(=O)n(-c3ccc(Oc4ccccc4)cc3)c3c(N)nccc32)C1 [the BTK inhibitor, (R)-1-(1-acryloylpiperidin-3-yl)-4-amino-3-(4-phenoxyphenyl)-1H-imidazo[4,5-c]pyridin-2(3H)-one]",dose at which the dose-response relationship for the CD19+ B-cell increase is maximal,approximately 30 mg once daily

# Reference: US20210244720A1, “Therapeutic Tyrosine Kinase Inhibitors for Relapsing Multiple Sclerosis (RMS)” (Genzyme Corporation, priority 2020, published 2021)
